The results in this text go back to US8791143B2, “Anthranilic diamide derivatives having cyclic side-chains” (priority 2010, dated 2014).

Read-outs that look alike come from different tables or passages of the source.

By log P is commonly meant the decadic logarithm of the partition coefficient of the neutral form, usually between octanol and water. A high value points to a more lipophilic compound.

The nature of series [1]: log P by HPLC on reversed-phase columns (EEC Directive 79/831 Annex V.A8). The class given is physicochemical.
Series [2] has as its system green peach aphid (Myzus persicae). In words: Myzus test (MYZUPE spray treatment). The class given is in vivo.
Series [3] has as its system larvae of the mustard beetle (Phaedon cochleariae). In words: Phaedon test (PHAECO spray treatment). To be noted: for inhibition at 20 g/ha: read-out: % Activity PHAECO.
For series [4], the system named is caterpillars of the armyworm (Spodoptera frugiperda). Nature of the series: Spodoptera frugiperda test (SPODFR spray treatment). The class given is in vivo. To be noted: for inhibition at 20 g/ha: 7 d, comparison with prior art.
Setting [5] is: Myzus persicae, 144 h, read-out: activity in % (aphids killed).
[6] abbreviates: Phaedon cochleariae, 168 h, read-out: activity in % (beetle larvae killed).
Where [7] appears, read: Spodoptera frugiperda, 168 h, read-out: activity in % (caterpillars killed).
The mark [8] stands for this setting: reversed-phase C18 HPLC column, pH 2.7, HPLC reversed-phase C18, acidic range pH 2.7 (HCOOH), only or first value of the cell, read-out: log P.
The mark [9] stands for this setting: Myzus persicae, 144 h, application rate 100 g/ha, after 6 days, read-out: activity in % (aphids killed).
Where [10] appears, read: Spodoptera frugiperda, 168 h, application rate 100 g/ha, after 7 days, read-out: activity in % (caterpillars killed).
Where [11] appears, read: application rate 100 g/ha, after 7 days.
Setting [12] is: Myzus persicae, 144 h, 6 d, comparison with prior art.

Compound `Cc1cc(Cl)cc(C(=O)NC(C)C2CCCO2)c1NC(=O)c1cc(Cn2nnc(C(F)(F)F)n2)nn1-c1ncccc1Cl` (centres unmarked) [Example 62] returned a chromatographic logP in series [1] (pH 2.7, log P) of 3.45. For the same compound, the pest or weed control at 100 g/ha in series [2] (setting [5]), in series [3] (setting [6]) and in series [4] (setting [7]) was 100% throughout.
For the compound `Cc1cc(C)c(NC(=O)c2cc(Cn3nnc(C(F)(F)F)n3)nn2-c2ncccc2Cl)c(C(=O)NC2COC2)c1` [Example 7], the chromatographic logP in series [1] (pH 2.7, log P) turned out to be 2.67. In addition, the pest or weed control at 100 g/ha in series [2] (setting [5]) worked out at 90%; in series [3] (setting [6]), 100%; in series [4] (setting [7]) it was 100%.
Regarding `Cc1cc(Cl)cc(C(=O)NCc2ccc(OC(F)F)cc2)c1NC(=O)c1cc(Cn2nnc(C(F)(F)F)n2)nn1-c1ncccc1Cl` [Example 152], the chromatographic logP in series [1] (setting [8]) was 3.87. Further, the pest or weed control at 100 g/ha in series [2] (setting [9]), in series [3] (setting [6]) and in series [4] (setting [10]) was 100% in each case.
On to `Cc1cc(I)cc(C(=O)NC2COC2)c1NC(=O)c1cc(Cn2nnc(C(F)(F)F)n2)nn1-c1ncccc1Cl` [Example 6], for which the chromatographic logP in series [1] (pH 2.7, log P) is 3. For the same compound, the pest or weed control at 100 g/ha stood at 80% in series [2] (setting [5]), 100% in series [3] (setting [6]) and 100% in series [4] (setting [7]).
`Cc1cc(Cl)cc(C(=O)NN2CCN(C)C2=O)c1NC(=O)c1cc(Cn2nnc(C(F)(F)F)n2)nn1-c1ncccc1Cl` [Example 41] yielded a chromatographic logP in series [1] (pH 2.7, log P) of 2.64. Further, the values for the pest or weed control at 100 g/ha in series [2] (setting [5]), in series [3] (setting [6]) and in series [4] (setting [7]) were 80%, 100% and 100%, respectively.
`Cc1cc(C#N)cc(C(=O)NC2COC2)c1NC(=O)c1cc(Cn2nnc(C(F)(F)F)n2)nn1-c1ncccc1Cl` [Example 1] yielded a chromatographic logP in series [1] (pH 2.7, log P) of 2.49. For the same compound, in series [2] (setting [5]), the pest or weed control at 100 g/ha turned out to be 90%. The inhibition at 20 g/ha in series [2] (Myzus persicae, 144 h, 20 g/ha, 6 d, comparison with prior art) was found to be 100%. The “activity in % (beetle larvae killed)” value in series [3] (setting [11]) was found to be 100%. In addition, the “activity in % (caterpillars killed)” value in series [4] (setting [11]) is 100%.
In the case of `Cc1cc(Cl)cc(C(=O)NC2COC2)c1NC(=O)c1cc(Cn2nnc(C(F)(F)F)n2)nn1-c1ncccc1Cl` [Example 2], in series [1] (pH 2.7, log P), the chromatographic logP is 2.8. The pest or weed control at 100 g/ha in series [2] (setting [5]), in series [3] (setting [6]) and in series [4] (setting [7]) was 100% each time. The inhibition at 100 g/ha in series [2] (setting [12]) turned out to be 100%. In addition, the inhibition at 20 g/ha in series [3] (Phaedon cochleariae, 168 h) was found to be 100%; in series [4] (Spodoptera frugiperda, 168 h), 100%.
In series [1] (pH 2.7, log P), `Cc1cc(F)cc(C(=O)NC2COC2)c1NC(=O)c1cc(Cn2nnc(C(F)(F)F)n2)nn1-c1ncccc1Cl` [Example 4] returned a chromatographic logP of 2.53. The pest or weed control at 100 g/ha in series [2] (setting [5]), in series [3] (setting [6]) and in series [4] (setting [7]) was 100% in each case.
As to `Cc1cc(Cl)cc(C(=O)NCc2ccc([N+](=O)[O-])cc2)c1NC(=O)c1cc(Cn2nnc(C(F)(F)F)n2)nn1-c1ncccc1Cl` [Example 97], the chromatographic logP in series [1] (setting [8]) was 3.65. The pest or weed control at 100 g/ha was 90% in series [2] (setting [9]), 100% in series [3] (setting [6]) and 100% in series [4] (setting [10]).
In series [1] (pH 2.7, log P), `Cc1cc(Cl)cc(C(=O)NCc2ccc(N)cc2)c1NC(=O)c1cc(Cn2nnc(C(F)(F)F)n2)nn1-c1ncccc1Cl` [Example 140] gave a chromatographic logP of 2.55. The pest or weed control at 100 g/ha in series [2] (setting [5]), in series [3] (setting [6]) and in series [4] (setting [7]) was 100% throughout.
Consider `Cc1cc(Cl)cc(C(=O)NC2CCC2)c1NC(=O)c1cc(Cn2nnc(C(F)(F)F)n2)nn1-c1ncccc1Cl` [No. 4 known WO2007/144100, reference compound], for which, in series [2] (setting [12]), the inhibition at 100 g/ha is 0%. The inhibition at 20 g/ha in series [3] (Phaedon cochleariae, 168 h) was found to be 33%; in series [4] (Spodoptera frugiperda, 168 h), 83%.
On to `Cc1cc(C#N)cc(C(=O)NC2CCSC2=O)c1NC(=O)c1cc(Cn2nnc(C(F)(F)F)n2)nn1-c1ncccc1Cl` (centres unmarked) [Example 39], for which the “log P (second value after the slash)” value in series [1] (pH 2.7) turned out to be 2.57. For the same compound, the chromatographic logP in series [1] (pH 2.7, log P) was 2.89. Also, the pest or weed control at 500 g/ha in series [2] (setting [5]), in series [3] (setting [6]) and in series [4] (setting [7]) was 100% in each case.
As to `Cc1cc(Cl)cc(C(=O)NC(C)c2ccc(Cl)cn2)c1NC(=O)c1cc(Cn2nnc(C(F)(F)F)n2)nn1-c1ncccc1Cl` (centres unmarked) [Example 236], the chromatographic logP in series [1] (pH 2.7, log P) was 3.63. Moreover, the pest or weed control at 100 g/ha is 90% in series [2] (setting [5]), 100% in series [3] (setting [6]) and 100% in series [4] (setting [7]).
As to `Cc1cc(Cl)cc(C(=O)NC2CS(=O)(=O)CC2O)c1NC(=O)c1cc(Cn2nnc(C(F)(F)F)n2)nn1-c1ncccc1Cl` (centres unmarked) [Example 35], in series [1] (pH 2.7, log P), the chromatographic logP is 2.58. Also, the pest or weed control at 100 g/ha in series [2] (setting [5]) was 80%; in series [3] (setting [6]) it was 100%; in series [4] (setting [7]), 100%.
In series [1] (pH 2.7, log P), `Cc1cc(C#N)cc(C(=O)NC2COC2)c1NC(=O)c1cc(Cn2nnc(C(F)(F)C(F)(F)F)n2)nn1-c1ncccc1Cl` [Example 14] yielded a chromatographic logP of 2.87. Moreover, the results for the pest or weed control at 100 g/ha in series [2] (setting [5]), in series [3] (setting [6]) and in series [4] (setting [7]) were 90%, 100% and 100%, respectively.
The compound `Cc1cc(Br)cc(C(=O)NC2COC2)c1NC(=O)c1cc(Cn2nnc(C(F)(F)F)n2)nn1-c1ncccc1Cl` [Example 3] showed a chromatographic logP in series [1] (pH 2.7, log P) of 2.87. For the same compound, the pest or weed control at 100 g/ha in series [2] (setting [5]), in series [3] (setting [6]) and in series [4] (setting [7]) was 100% throughout.
Turning to `Cc1cc(C#N)cc(C(=O)NC2COC2)c1NC(=O)c1cc(Cn2nnc(C(F)(F)F)n2)nn1-c1c(Cl)cccc1Cl` [Example 28], the chromatographic logP in series [1] (setting [8]) turned out to be 3.05. In addition, the pest or weed control at 100 g/ha in series [2] (setting [9]), in series [3] (setting [6]) and in series [4] (setting [10]) was 100% throughout.
In turn, `Cc1cc(C#N)cc(C(=O)NC2CSC2)c1NC(=O)c1cc(Cn2nnc(C(F)(F)F)n2)nn1-c1ncccc1Cl` [Example 15] yielded a chromatographic logP in series [1] (pH 2.7, log P) of 3.06. The pest or weed control at 100 g/ha in series [2] (setting [5]), in series [3] (setting [6]) and in series [4] (setting [7]) was 100% throughout.
For the compound `Cc1cc(C#N)cc(C(=O)NCc2ccccc2OC(F)(F)F)c1NC(=O)c1cc(Cn2nnc(C(F)(F)F)n2)nn1-c1ncccc1Cl` [Example 153], in series [1] (setting [8]), the chromatographic logP was determined as 3.89. The results for the pest or weed control at 100 g/ha in series [2] (setting [9]), in series [3] (setting [6]) and in series [4] (setting [10]) were 90%, 100% and 100%, respectively.
With `Cc1cc(C#N)cc(C(=O)NC2CCS(=O)(=O)C2)c1NC(=O)c1cc(Cn2nnc(C(F)(F)F)n2)nn1-c1c(Cl)cccc1Cl` (centres unmarked) [Example 54], in series [1] (setting [8]), the chromatographic logP stood at 2.95. Moreover, the results for the pest or weed control at 100 g/ha in series [2] (setting [9]), in series [3] (setting [6]) and in series [4] (setting [10]) were 80%, 100% and 100%, respectively.
Turning to `Cc1cc(Cl)cc(C(=O)NCc2ccc(OC(F)(F)F)cc2)c1NC(=O)c1cc(Cn2nnc(C(F)F)n2)nn1-c1ncccc1Cl` [Example 151], the chromatographic logP in series [1] (setting [8]) is 3.78. The pest or weed control at 100 g/ha in series [2] (setting [9]), in series [3] (setting [6]) and in series [4] (setting [10]) was 100% in each case.
For `Cc1cc(Cl)cc(C(=O)NC(C)c2ccccc2F)c1NC(=O)c1cc(Cn2nnc(C(F)(F)F)n2)nn1-c1ncccc1Cl` (centres unmarked) [Example 87], the chromatographic logP in series [1] (pH 2.7, log P) worked out at 3.98. The pest or weed control at 100 g/ha was 80% in series [2] (setting [5]), 100% in series [3] (setting [6]) and 100% in series [4] (setting [7]).
As to `Cc1cc(C#N)cc(C(=O)NCc2ccccc2)c1NC(=O)c1cc(Cn2nnc(C(F)(F)F)n2)nn1-c1ncccc1Cl` [Example 70], the chromatographic logP in series [1] (pH 2.7, log P) stood at 3.38. In addition, the pest or weed control at 100 g/ha in series [2] (setting [5]), in series [3] (setting [6]) and in series [4] (setting [7]) was 100% in each case.
In the case of `Cc1cc(C#N)cc(C(=O)NC2COC2)c1NC(=O)c1cc(Cn2nnc(C(F)(F)F)n2)nn1-c1ncccc1Cl` [Example 20], the lipophilicity (log P) in series [1] (pH 2.7) was found to be 2.51. Also, the “activity in % (aphids killed)” value in series [2] (application rate 100 g/ha, after 6 days) stood at 90%. For the same compound, the pest or weed control at 100 g/ha in series [3] (setting [6]) and in series [4] (setting [7]) was 100% throughout.
As to `O=C(NCc1ccc(Cl)cc1)c1cc(Cl)cc(F)c1NC(=O)c1cc(Cn2nnc(C(F)(F)F)n2)nn1-c1ncccc1Cl` [Example 206], the chromatographic logP in series [1] (setting [8]) turned out to be 3.9. For the same compound, the pest or weed control at 100 g/ha in series [2] (setting [9]), in series [3] (setting [6]) and in series [4] (setting [10]) was 100% each time.
For the compound `Cc1cc(Cl)cc(C(=O)NC2CCN(C)C2=O)c1NC(=O)c1cc(Cn2nnc(C(F)(F)F)n2)nn1-c1ncccc1Cl` (centres unmarked) [Example 50], in series [1] (pH 2.7), the “log P (second value after the slash)” value worked out at 2.36. In series [1] (pH 2.7, log P), this compound came in with a chromatographic logP of 2.66. In addition, the pest or weed control at 100 g/ha in series [2] (setting [5]), in series [3] (setting [6]) and in series [4] (setting [7]) was 100% each time.
In series [1] (pH 2.7, log P), `Cc1cc(Cl)cc(C(=O)NC2CCS(=O)(=O)C2)c1NC(=O)c1cc(Cn2nnc(C(F)(F)F)n2)nn1-c1ncccc1Cl` (centres unmarked) [Example 34] had a chromatographic logP of 2.78. Also, the pest or weed control at 100 g/ha in series [2] (setting [5]), in series [3] (setting [6]) and in series [4] (setting [7]) was 100% each time.
